Assays:
[1] = system: wild oat; test: Test B pre/postemergence wild oat; assay type: in vivo, Avena fatua; details: for Wild oats plant response rating: scale of 0 to 10 where 0 is no effect and 10 is complete control
How it was run: (§1)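 Test chemicals in a non-phytotoxic solvent mixture with surfactant were sprayed preemergence onto planted seeds and postemergence onto plants 2 to 18 cm tall (1- to 4-leaf stage). After twelve to sixteen days in a greenhouse, injury was visually rated against untreated controls from 0 (no effect) to 10 (complete control).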

[2] = system: purple nutsedge; test: Test B pre/postemergence purple nutsedge; assay type: in vivo, Cyperus rotundus; details: for Nutsedge plant response rating: scale of 0 to 10 where 0 is no effect and 10 is complete control
How it was run: as §1

[3] = system: crabgrass; test: Test B pre/postemergence crabgrass; assay type: in vivo, Digitaria sanguinalis; details: for Crabgrass plant response rating: scale of 0 to 10 where 0 is no effect and 10 is complete control
How it was run: as §1

[4] = system: surinam grass; test: Test B pre/postemergence surinam grass; assay type: in vivo, Brachiaria decumbens
How it was run: as §1

[5] = system: cocklebur; test: Test B pre/postemergence cocklebur; assay type: in vivo, Xanthium strumarium; details: for Cocklebur plant response rating: scale of 0 to 10 where 0 is no effect and 10 is complete control
How it was run: as §1

[6] = system: corn; test: Test B pre/postemergence corn; assay type: in vivo, Zea mays; details: for Corn plant response rating: scale of 0 to 10 where 0 is no effect and 10 is complete control
How it was run: as §1

[7] = system: blackgrass; test: Test B pre/postemergence blackgrass; assay type: in vivo, Alopecurus myosuroides
How it was run: as §1

[8] = system: smallflower flatsedge; test: Test B flood test smallflower flatsedge; assay type: in vivo, Cyperus difformis; details: Pre-emergence
How it was run: (§2)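 Flood test on plants grown to the 2-leaf stage; treated plants kept in greenhouse twelve to sixteen days, then visually rated against controls on a 0 (no effect) to 10 (complete control) scale.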

[9] = system: morningglory; test: Test B pre/postemergence morningglory; assay type: in vivo, Ipomoea hederacea; details: for Morningglory plant response rating: scale of 0 to 10 where 0 is no effect and 10 is complete control
How it was run: as §1

[10] = system: duck salad; test: Test B flood test duck salad; assay type: in vivo, Heteranthera limosa; details: Pre-emergence
How it was run: as §2

[11] = system: bamyardgrass; test: Test B flood test barnyardgrass; assay type: in vivo, Echinochloa crus-galli; details: Pre-emergence
How it was run: as §2

[12] = system: bedstraw; test: Test B pre/postemergence bedstraw; assay type: in vivo, Galium aparine
How it was run: as §1

[13] = system: velvetleaf; test: Test B pre/postemergence velvetleaf; assay type: in vivo, Abutilon theophrasti; details: for Velvetleaf plant response rating: scale of 0 to 10 where 0 is no effect and 10 is complete control
How it was run: as §1

[14] = system: rice; test: Test B flood test rice; assay type: in vivo, Oryza sativa; details: Pre-emergence
How it was run: as §2

[15] = system: giant foxtail; test: Test B pre/postemergence giant foxtail; assay type: in vivo, Setaria faberii; details: for Giant foxtail plant response rating: scale of 0 to 10 where 0 is no effect and 10 is complete control
How it was run: as §1

[16] = system: wheat; test: Test B pre/postemergence wheat; assay type: in vivo, Triticum aestivum; details: for Wheat plant response rating: scale of 0 to 10 where 0 is no effect and 10 is complete control
How it was run: as §1

[17] = Postemergence, Rate 125 g/ha, scale 0 to 10, 0 is no effect, 10 is complete control
[18] = Preemergence, Rate 62 g/ha, scale 0 to 10 (0 no effect, 10 complete control)
[19] = Rate 500 g/ha, Postemergence, scale 0 to 10, 0 no effect, 10 complete control
[20] = Preemergence, Rate 250 g/ha, scale of 0 to 10 where 0 is no effect and 10 is complete control
[21] = Preemergence, Rate 500 g/ha, scale of 0 to 10 where 0 is no effect and 10 is complete control
[22] = Rate 62 g/ha, Postemergence, scale of 0 to 10 where 0 is no effect and 10 is complete control
[23] = Rate 250 g/ha, Postemergence, scale of 0 to 10 where 0 is no effect and 10 is complete control
[24] = Rate 62 g/ha, flood test species, visual evaluation after twelve to sixteen days
[25] = Rate 125 g/ha, flood test species, scale 0 to 10 where 0 is no effect and 10 is complete control
[26] = Rate 250 g/ha, flood-test species, scale 0 to 10, 0 is no effect, 10 is complete control
[27] = Rate 500 g/ha, flood test species, scale 0 to 10 (0 no effect, 10 complete control)

CC(C)N(C(=O)n1oc(=O)n(C2CCCCCC2)c1=O)c1ccccc1 [Compound 341]
Plant response rating, Wild oats [1, 17]: 0
Plant response rating, Wild oats [1, 18]: 0
Wild oats plant response rating (0 to 10 scale) ([1]; Preemergence, Rate 125 g/ha): 0
Wild oats plant response rating ([1]; Preemergence, Rate 250 g/ha): 0
Wild oats plant response rating ([1]; Preemergence, Rate 500 g/ha): 2
Wild oats plant response rating ([1]; Rate 62 g/ha, Postemergence): 0
Plant response rating, Wild oats [1, 19]: 3
Plant response rating, Nutsedge [2, 17]: 0
Plant response rating, Nutsedge [2, 18]: 0
Nutsedge plant response rating (0 to 10 scale) ([2]; Preemergence, Rate 125 g/ha): 0
Nutsedge plant response rating ([2]; Preemergence, Rate 250 g/ha): 0
Nutsedge plant response rating ([2]; Preemergence, Rate 500 g/ha): 0
Nutsedge plant response rating ([2]; Rate 62 g/ha, Postemergence): 0
Plant response rating, Nutsedge [2, 19]: 0
Plant response rating, Crabgrass [3, 17]: 0
Plant response rating, Crabgrass [3, 18]: 2
Crabgrass plant response rating (0 to 10 scale) ([3]; Preemergence, Rate 125 g/ha): 2
Crabgrass plant response rating ([3]; Preemergence, Rate 250 g/ha): 2
Crabgrass plant response rating ([3]; Preemergence, Rate 500 g/ha): 8
Crabgrass plant response rating ([3]; Rate 62 g/ha, Postemergence): 0
Plant response rating, Crabgrass [3, 19]: 2
Plant response rating, B. signalgrass [4, 17]: 0
Plant response rating, B. signalgrass [4, 18]: 0
B. signalgrass plant response rating (0 to 10 scale, 0 is no effect, 10 is complete control) ([4]; Preemergence, Rate 125 g/ha): 0
B. signalgrass plant response rating [4, 20]: 0
B. signalgrass plant response rating [4, 21]: 0
B. signalgrass plant response rating [4, 22]: 0
Plant response rating, B. signalgrass [4, 23]: 0
Plant response rating, B. signalgrass [4, 19]: 2
Plant response rating, Cocklebur [5, 17]: 0
Plant response rating, Cocklebur [5, 18]: 0
Cocklebur plant response rating (0 to 10 scale) ([5]; Preemergence, Rate 125 g/ha): 0
Cocklebur plant response rating ([5]; Preemergence, Rate 250 g/ha): 0
Cocklebur plant response rating ([5]; Preemergence, Rate 500 g/ha): 0
Cocklebur plant response rating ([5]; Rate 62 g/ha, Postemergence): 0
Plant response rating, Corn [6, 17]: 0
Plant response rating, Corn [6, 18]: 0
Corn plant response rating (0 to 10 scale) ([6]; Preemergence, Rate 125 g/ha): 0
Corn plant response rating ([6]; Preemergence, Rate 250 g/ha): 0
Corn plant response rating ([6]; Preemergence, Rate 500 g/ha): 0
Corn plant response rating ([6]; Rate 62 g/ha, Postemergence): 0
Plant response rating, Corn [6, 19]: 0
Plant response rating, Blackgrass [7, 17]: 0
Plant response rating, Blackgrass [7, 18]: 0
Blackgrass plant response rating (0 to 10 scale) ([7]; Preemergence, Rate 125 g/ha): 2
Blackgrass plant response rating [7, 20]: 6
Blackgrass plant response rating [7, 21]: 7
Blackgrass plant response rating [7, 22]: 0
Plant response rating, Blackgrass [7, 23]: 2
Plant response rating, Blackgrass [7, 19]: 2
Plant response rating, S. Flatsedge (0 to 10 scale, 0 is no effect, 10 is complete control) [8, 24]: 1
S. Flatsedge plant response rating [8, 25]: 4
S. Flatsedge plant response rating [8, 26]: 9
S. Flatsedge plant response rating [8, 27]: 9
Plant response rating, Morningglory [9, 17]: 7
Plant response rating, Morningglory [9, 18]: 0
Morningglory plant response rating (0 to 10 scale) ([9]; Preemergence, Rate 125 g/ha): 0
Morningglory plant response rating ([9]; Preemergence, Rate 250 g/ha): 0
Morningglory plant response rating ([9]; Preemergence, Rate 500 g/ha): 0
Morningglory plant response rating ([9]; Rate 62 g/ha, Postemergence): 7
Plant response rating, Morningglory [9, 19]: 10
Plant response rating, Ducksalad (0 to 10 scale, 0 is no effect, 10 is complete control) [10, 24]: 0
Ducksalad plant response rating [10, 25]: 0
Ducksalad plant response rating [10, 26]: 0
Ducksalad plant response rating [10, 27]: 3
Plant response rating, Barnyardgrass (0 to 10 scale, 0 is no effect, 10 is complete control) [11, 24]: 2
Barnyardgrass plant response rating [11, 25]: 8
Barnyardgrass plant response rating [11, 26]: 9
Barnyardgrass plant response rating [11, 27]: 9
Plant response rating, Bedstraw [12, 17]: 0
Plant response rating, Bedstraw [12, 18]: 0
Bedstraw plant response rating (0 to 10 scale) ([12]; Preemergence, Rate 125 g/ha): 0
Bedstraw plant response rating [12, 21]: 2
Bedstraw plant response rating [12, 22]: 0
Plant response rating, Bedstraw [12, 23]: 4
Plant response rating, Bedstraw [12, 19]: 8
Plant response rating, Velvetleaf [13, 17]: 0
Plant response rating, Velvetleaf [13, 18]: 0
Velvetleaf plant response rating (0 to 10 scale) ([13]; Preemergence, Rate 125 g/ha): 0
Velvetleaf plant response rating ([13]; Preemergence, Rate 250 g/ha): 0
Velvetleaf plant response rating ([13]; Preemergence, Rate 500 g/ha): 2
Velvetleaf plant response rating ([13]; Rate 62 g/ha, Postemergence): 0
Plant response rating, Velvetleaf [13, 19]: 2
Plant response rating, Rice (0 to 10 scale, 0 is no effect, 10 is complete control) [14, 24]: 0
Rice plant response rating [14, 25]: 0
Rice plant response rating [14, 26]: 0
Rice plant response rating [14, 27]: 2
Plant response rating, Giant foxtail [15, 17]: 0
Plant response rating, Giant foxtail [15, 18]: 9
Giant foxtail plant response rating (0 to 10 scale) ([15]; Preemergence, Rate 125 g/ha): 9
Giant foxtail plant response rating ([15]; Preemergence, Rate 250 g/ha): 10
Giant foxtail plant response rating ([15]; Preemergence, Rate 500 g/ha): 10
Giant foxtail plant response rating ([15]; Rate 62 g/ha, Postemergence): 0
Plant response rating, Giant foxtail [15, 19]: 2
Plant response rating, Wheat [16, 17]: 0
Plant response rating, Wheat [16, 18]: 0
Wheat plant response rating (0 to 10 scale) ([16]; Preemergence, Rate 125 g/ha): 0
Wheat plant response rating ([16]; Preemergence, Rate 250 g/ha): 0
Wheat plant response rating ([16]; Preemergence, Rate 500 g/ha): 0
Wheat plant response rating ([16]; Rate 62 g/ha, Postemergence): 0
Plant response rating, Wheat [16, 19]: 0
